According to patent US12570648B2, “6,7-dihydro-5H-pyrido[2,3-c]pyridazine derivatives and related compounds as Bcl-xL protein inhibitors and pro-apoptotic agents for treating cancer” (LES LABORATOIRES SERVIER, priority 2019, dated 2026):

Assays:
[1] = target: GST(1-218)-(FACTOR_XA)-hsBCLXL(2-209) (Homo sapiens (Human), UniProt Q07817); test: Fluorescence polarisation assay; format: binding
Protocol: Fluorescence polarization measures the rotation of a fluorescing species in solution, the larger the molecule the more polarized the fluorescence emission.
(GST UniProtKB® primary accession number P08515 and BCLXL UniProtKB® primary accession number Q07817-1), • resulting in an increase in anisotropy. If a compound is added which competitively binds to the same site as the probe, thereby releasing it, anisotropy decreases due to the increased amount of free probe.
An 11-point serial dilution of each compound was prepared in DMSO, the final buffer conditions were 10 mM 4-(2-hydroxyethyl)-1-piperazineethanesulfonic acid [HEPES], 150 mM NaCl, 0.05% Tween 20, pH 7.4 and 5% DMSO. The final protein concentration in the assay was 20 nM with the fluorescent probe present at 10 nM. […] 1; 37 (WebServer issue): W441-W445.

H146 cells = test: H146 cell viability using MTT assay; format: cell-based; details: Homo sapiens, NCI-H146, 48 h exposure
Protocol: MTT colorimetric assay is based on the mitochondrial reduction of tetrazolium salt by living cells. The viable cell number is proportional to the production of formazan salts, which can be read spectrophotometrically at 540 nm.
MOLT-4 and H146 cells were purchased from ATCC and cultivated in RPMI 1640 supplemented with 10% heat inactivated fetal bovine serum, penicillin (100 IU/ml), streptomycin (100 μg/ml) and L-glutamine (2 mM). Cells were cultured at 37° C. in a humidified atmosphere containing 5% CO2. Cells were seeded in 96 microwell plates (150p per well) and exposed to the compounds for 48 h (3.16 fold serially diluted; 9 concentrations each, triplicates). At the end of incubation time, 15 μL of MTT solution (5 mg/ml) were added per well and the cells were incubated for another 4 h. Then, 100 μL of 10% Sodium Dodecyl Sulfate (SDS)/HCl 10 mM were added per well and the plate was incubated overnight, before measurement of optical density at 540 nm. IC50s were calculated using standard four-parametric curve fitting.

MOLT-4 cells = test: MOLT-4 cell viability using MTT assay; format: cell-based; details: Homo sapiens, MOLT-4, 48 h, 48 h exposure
Protocol: MTT colorimetric assay is based on the mitochondrial reduction of tetrazolium salt by living cells.
Cells were cultured at 37° C. in a humidified atmosphere containing 5% CO2. […] At the end of incubation time, 15 μL of MTT solution (5 mg/ml) were added per well and the cells were incubated for another 4 h. […] IC50s were calculated using standard four-parametric curve fitting.

[2] = target: His-His-(EK)-hsBCLXL(2-197)[N197C] (Homo sapiens (Human), UniProt Q07817, N197C); test: Fluorescence quenching assay; format: binding; details: 1 nM Cy5-labelled protein, 400 nM PUMA peptide, 2 hours at 23° C.; KI determined from IC50
Chain of His-His-(EK)-hsBCLXL(2-197)[N197C] (Q07817 2-197 N197C): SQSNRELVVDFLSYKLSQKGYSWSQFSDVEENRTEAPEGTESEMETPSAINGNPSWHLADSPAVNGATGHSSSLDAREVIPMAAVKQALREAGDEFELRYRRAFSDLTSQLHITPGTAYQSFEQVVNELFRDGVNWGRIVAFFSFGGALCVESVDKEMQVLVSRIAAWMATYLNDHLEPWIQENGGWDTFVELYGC
Outline: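 Ki values converted from IC50s, measured as fluorescence increase (Ex 620/Em 680 nm) after 2 h at 23° C. Compounds were titrated over 11 points against 1 nM Cy5-BCL-xL and 400 nM quencher-tagged PUMA peptide in pH 7.4 HEPES (10 mM), 150 mM NaCl, 0.05% Tween 20, 5% DMSO.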

Chain of GST(1-218)-(FACTOR_XA)-hsBCLXL(2-209) (Q07817 other isoform, or with tags, fused parts or gaps): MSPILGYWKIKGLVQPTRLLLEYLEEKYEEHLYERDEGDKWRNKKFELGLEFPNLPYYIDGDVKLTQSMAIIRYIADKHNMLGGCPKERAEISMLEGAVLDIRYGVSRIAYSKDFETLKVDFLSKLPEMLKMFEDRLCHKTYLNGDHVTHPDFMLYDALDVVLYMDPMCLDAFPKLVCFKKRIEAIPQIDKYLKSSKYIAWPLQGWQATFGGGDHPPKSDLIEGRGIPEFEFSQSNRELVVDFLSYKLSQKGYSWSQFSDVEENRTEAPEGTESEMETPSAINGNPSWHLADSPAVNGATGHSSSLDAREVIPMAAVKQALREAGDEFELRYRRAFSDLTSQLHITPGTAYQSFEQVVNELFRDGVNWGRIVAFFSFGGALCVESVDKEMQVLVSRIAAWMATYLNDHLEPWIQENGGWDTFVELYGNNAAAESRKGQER

SMILES	Ki [1]	IC50 (H146 cells)	IC50 (MOLT-4 cells)	Ki [2]
O=C(O)c1csc(-n2ccc3cc(Nc4nc5ccccc5s4)ncc32)n1 [Example 7, 2-{5-[(1,3-Benzothiazol-2-yl)amino]-1H-pyrrolo[2,3-c]pyridin-1-yl}-1,3-thiazole-4-carboxylic acid]	9900 nM	–	–	–
O=C(O)c1csc(N2CCc3cc(Nc4nc5ccccc5s4)ccc32)n1 [Example 3, 2-{5-[(1,3-Benzothiazol-2-yl)amino]-2,3-dihydro-1H-indol-1-yl}-1,3-thiazole-4-carboxylic acid]	36000 nM	–	–	–
O=C(O)c1csc(-n2ccc3cc(Nc4nc5ccccc5s4)nnc32)n1 [Example 8, 2-{3-[(1,3-Benzothiazol-2-yl)amino]-7H-pyrrolo[2,3-c]pyridazin-7-yl}-1,3-thiazole-4-carboxylic acid]	1100 nM	–	–	–
Cc1c(Nc2nc3ccccc3s2)nnc2c1CCCN2c1nc(C(=O)O)c(CCCOc2ccc(CCCN3CCC4(CC3)CNC(=O)C4)cc2F)s1 [Example 73, 2-[3-(1,3-Benzothiazol-2-ylamino)-4-methyl-6,7-dihydro-5H-pyrido[2,3-c]pyridazin-8-yl]-5-[3-[2-fluoro-4-[3-(3-oxo-2,8-diazaspiro[4.5]decan-8-yl)propyl]phenoxy]propyl]thiazole-4-carboxylic acid]	–	14.7 nM	6.54 nM	0.0025 nM
Cc1c(Nc2nc3ccccc3s2)nnc2c1CCCN2c1nc(C(=O)O)c(CCCOc2ccc(CCCCN(C)C)cc2F)s1 [Example 62, 2-{3-[(1,3-Benzothiazol-2-yl)amino]-4-methyl-5H,6H,7H,8H-pyrido[2,3-c]pyridazin-8-yl}-5-(3-{4-[4-(dimethylamino)butyl]-2-fluorophenoxy}propyl)-1,3-thiazole-4-carboxylic acid]	–	69 nM	20.2 nM	0.0034 nM
Cc1c(Nc2nc3ccccc3s2)nnc2c1CCCN2c1nc(C(=O)O)c(CCCOc2ccc(CCCN3CCOCC3)cc2F)s1 [Example 70, 2-[3-(1,3-Benzothiazol-2-ylamino)-4-methyl-6,7-dihydro-5H-pyrido[2,3-c]pyridazin-8-yl]-5-[3-[2-fluoro-4-(3-morpholinopropyl)phenoxy]propyl]thiazole-4-carboxylic acid]	–	16.9 nM	3.08 nM	0.017 nM
CNCC#Cc1ccc(OCCCc2sc(N3CC(O)Cc4c3nnc(Nc3nc5ccccc5s3)c4C)nc2C(=O)O)c(F)c1 (stereo not drawn) [Example 38, 2-[3-(1,3-Benzothiazol-2-ylamino)-6-hydroxy-4-methyl-6,7-dihydro-5H-pyrido[2,3-c]pyridazin-8-yl]-5-[3-[2-fluoro-4-[3-(methylamino)prop-1-ynyl]phenoxy]propyl]thiazole-4-carboxylic acid]	–	22.1 nM	59.4 nM	0.0029 nM
Cc1c(Nc2nc3ccccc3s2)nnc2c1CCCN2c1nc(C(=O)O)c(CCCOc2ccc(OCCN(C)C)cc2)s1 [Example 44, 2-{3-[(1,3-Benzothiazol-2-yl)amino]-4-methyl-5H,6H,7H,8H-pyrido[2,3-c]pyridazin-8-yl}-5-(3-{4-[2-(dimethylamino)ethoxy]phenoxy}propyl)-1,3-thiazole-4-carboxylic acid]	–	10.7 nM	4.04 nM	0.0015 nM
Cc1c(Nc2nc3ccccc3s2)nnc2c1CCCN2c1nc(C(=O)O)c(CCCOc2ccc(C#CCN(C)C)cc2C(F)(F)F)s1 [Example 40, 2-{3-[(1,3-Benzothiazol-2-yl)amino]-4-methyl-5H,6H,7H,8H-pyrido[2,3-c]pyridazin-8-yl}-5-(3-{4-[3-(dimethylamino)prop-1-yn-1-yl]-2-(trifluoromethyl)phenoxy}propyl)-1,3-thiazole-4-carboxylic acid]	–	20.8 nM	8.16 nM	0.057 nM
Cc1c(Nc2nc3ccccc3s2)nnc2c1CCCN2c1nc(C(=O)O)c(CCCOc2ccc(CCN(C)C)cc2F)s1 [Example 53, 2-{3-[(1,3-Benzothiazol-2-yl)amino]-4-methyl-5H,6H,7H,8H-pyrido[2,3-c]pyridazin-8-yl}-5-(3-{4-[2-(dimethylamino)ethyl]-2-fluorophenoxy}propyl)-1,3-thiazole-4-carboxylic acid]	–	14.9 nM	9.74 nM	0.0066 nM
Cc1c(Nc2nc3ccccc3s2)nnc2c1CCCN2c1nc(C(=O)O)c(CCCOc2ccc(C#CCN(C)C)cc2Br)s1 [Example 59, 2-{3-[(1,3-Benzothiazol-2-yl)amino]-4-methyl-5H,6H,7H,8H-pyrido[2,3-c]pyridazin-8-yl}-5-(3-{2-bromo-4-[3-(dimethylamino)prop-1-yn-1-yl]phenoxy}propyl)-1,3-thiazole-4-carboxylic acid]	–	17.3 nM	3.36 nM	0.023 nM
Cc1c(Nc2nc3ccccc3s2)nnc2c1CCCN2c1nc(C(=O)O)c(CCCOc2ccc(C#CCN3CCCCC3)cc2F)s1 [Example 46, 2-[3-(1,3-Benzothiazol-2-ylamino)-4-methyl-6,7-dihydro-5H-pyrido[2,3-c]pyridazin-8-yl]-5-[3-[2-fluoro-4-[3-(1-piperidyl)prop-1-ynyl]phenoxy]propyl]thiazole-4-carboxylic acid]	–	11.1 nM	1.2 nM	0.015 nM

Further compounds by falling IC50 (H146 cells), results first:

Ki [1]	IC50 (H146 cells)	IC50 (MOLT-4 cells)	Ki [2]	SMILES
–	10.7 nM	2.42 nM	0.0013 nM	Cc1c(Nc2nc3ccccc3s2)nnc2c1CCCN2c1nc(C(=O)O)c(CCCOc2ccc(OCCN3CCCC3)cc2)s1 [Example 52, 2-{3-[(1,3-Benzothiazol-2-yl)amino]-4-methyl-5H,6H,7H,8H-pyrido[2,3-c]pyridazin-8-yl}-5-(3-{4-[2-(pyrrolidin-1-yl)ethoxy]phenoxy}propyl)-1,3-thiazole-4-carboxylic acid]
–	9.6 nM	2.54 nM	0.012 nM	Cc1c(Nc2nc3ccccc3s2)nnc2c1CCCN2c1nc(C(=O)O)c(CCCOc2ccc(C#CCN(C)C)cc2Cl)s1 [Example 51, 2-{3-[(1,3-Benzothiazol-2-yl)amino]-4-methyl-5H,6H,7H,8H-pyrido[2,3-c]pyridazin-8-yl}-5-(3-{2-chloro-4-[3-(dimethylamino)prop-1-yn-1-yl]phenoxy}propyl)-1,3-thiazole-4-carboxylic acid]
–	8.86 nM	2.75 nM	0.0089 nM	Cc1c(Nc2nc3ccccc3s2)nnc2c1CCCN2c1nc(C(=O)O)c(CCCOc2ccc(N3CCN(C)CC3)cc2F)s1 [Example 60, 2-{3-[(1,3-Benzothiazol-2-yl)amino]-4-methyl-5H,6H,7H,8H-pyrido[2,3-c]pyridazin-8-yl}-5-{3-[2-fluoro-4-(4-methylpiperazin-1-yl)phenoxy]propyl}-1,3-thiazole-4-carboxylic acid]
–	8.22 nM	2.01 nM	0.012 nM	Cc1c(Nc2nc3ccccc3s2)nnc2c1CCCN2c1nc(C(=O)O)c(CCCOc2cc3c(cc2F)CCN(C)C3)s1 [Example 66, 2-{3-[(1,3-Benzothiazol-2-yl)amino]-4-methyl-5H,6H,7H,8H-pyrido[2,3-c]pyridazin-8-yl}-5-{3-[(6-fluoro-2-methyl-1,2,3,4-tetrahydroisoquinolin-7-yl)oxy]propyl}-1,3-thiazole-4-carboxylic acid]
–	5.65 nM	0.949 nM	0.0092 nM	Cc1c(Nc2nc3ccccc3s2)nnc2c1CCCN2c1nc(C(=O)O)c(CCCOc2ccc(C#CCN3CCCC(O)C3)cc2F)s1 (stereo not drawn) [Example 55, 2-[3-(1,3-Benzothiazol-2-ylamino)-4-methyl-6,7-dihydro-5H-pyrido[2,3-c]pyridazin-8-yl]-5-[3-[2-fluoro-4-[3-(3-hydroxy-1-piperidyl)prop-1-ynyl]phenoxy]propyl]thiazole-4-carboxylic acid]
–	3.67 nM	0.36 nM	0.0025 nM	Cc1c(Nc2nc3ccccc3s2)nnc2c1CCCN2c1nc(C(=O)O)c(CCCOc2ccc(C#CC(C)N3CCN(C)CC3)cc2F)s1 (stereo not drawn) [Example 41, 2-[3-(1,3-Benzothiazol-2-ylamino)-4-methyl-6,7-dihydro-5H-pyrido[2,3-c]pyridazin-8-yl]-5-[3-[2-fluoro-4-[3-(4-methylpiperazin-1-yl)but-1-ynyl]phenoxy]propyl]thiazole-4-carboxylic acid]
